Assays:
[1] = Henderson–Hasselbalch equation, assay conditions pH 8
[2] = target: GLP (G9a-like protein, EHMT1) (Homo sapiens, UniProt Q9H9B1); conditions: compared with G9a
G9a = G9a (Homo sapiens, UniProt Q96KQ7); conditions: SPA assay
SETD2 = SETD2 (Homo sapiens, UniProt Q9BYW2); conditions: at the highest concentrations surveyed (50 μM)
EZH2 = EZH2 (Homo sapiens, UniProt Q15910); conditions: at the highest concentrations surveyed (50 μM)
[3] = system: all other methyltransferases in the panel; conditions: panel other than G9a, GLP, SETD2, EZH2

GLP (G9a-like protein, EHMT1), sequence (Q9H9B1 whole entry): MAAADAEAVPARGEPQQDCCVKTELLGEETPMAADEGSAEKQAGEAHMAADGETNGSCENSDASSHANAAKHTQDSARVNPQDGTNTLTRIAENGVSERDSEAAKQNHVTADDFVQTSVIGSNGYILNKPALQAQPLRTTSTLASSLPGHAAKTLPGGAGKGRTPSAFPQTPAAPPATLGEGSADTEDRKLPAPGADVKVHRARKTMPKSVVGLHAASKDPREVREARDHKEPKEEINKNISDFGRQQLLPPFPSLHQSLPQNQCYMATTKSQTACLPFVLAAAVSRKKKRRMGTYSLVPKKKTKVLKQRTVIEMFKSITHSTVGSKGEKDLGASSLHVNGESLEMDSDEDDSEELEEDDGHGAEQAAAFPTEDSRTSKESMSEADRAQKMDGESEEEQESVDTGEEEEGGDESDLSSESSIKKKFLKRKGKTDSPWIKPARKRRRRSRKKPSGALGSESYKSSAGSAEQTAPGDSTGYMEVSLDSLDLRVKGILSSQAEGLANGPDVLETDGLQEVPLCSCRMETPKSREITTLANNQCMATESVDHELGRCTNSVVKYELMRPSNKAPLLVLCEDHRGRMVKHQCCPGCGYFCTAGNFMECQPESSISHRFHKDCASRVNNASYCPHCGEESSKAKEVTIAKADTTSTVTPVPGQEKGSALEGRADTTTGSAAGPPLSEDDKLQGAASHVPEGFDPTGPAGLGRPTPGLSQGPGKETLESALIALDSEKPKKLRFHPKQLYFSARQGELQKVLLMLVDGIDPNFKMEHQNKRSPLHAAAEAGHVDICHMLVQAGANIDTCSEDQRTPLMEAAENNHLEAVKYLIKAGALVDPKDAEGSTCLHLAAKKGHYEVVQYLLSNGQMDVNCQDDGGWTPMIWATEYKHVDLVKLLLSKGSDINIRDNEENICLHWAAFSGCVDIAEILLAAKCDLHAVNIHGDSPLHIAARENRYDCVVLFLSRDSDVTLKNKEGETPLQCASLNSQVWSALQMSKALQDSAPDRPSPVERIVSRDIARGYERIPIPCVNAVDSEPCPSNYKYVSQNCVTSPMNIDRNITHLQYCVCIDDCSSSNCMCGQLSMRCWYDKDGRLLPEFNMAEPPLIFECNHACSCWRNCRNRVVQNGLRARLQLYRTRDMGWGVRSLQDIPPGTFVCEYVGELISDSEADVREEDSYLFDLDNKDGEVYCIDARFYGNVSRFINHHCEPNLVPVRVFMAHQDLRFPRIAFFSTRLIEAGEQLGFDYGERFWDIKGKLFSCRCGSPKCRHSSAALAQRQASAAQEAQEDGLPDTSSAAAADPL
EZH2, sequence (Q15910 whole entry, species assumed): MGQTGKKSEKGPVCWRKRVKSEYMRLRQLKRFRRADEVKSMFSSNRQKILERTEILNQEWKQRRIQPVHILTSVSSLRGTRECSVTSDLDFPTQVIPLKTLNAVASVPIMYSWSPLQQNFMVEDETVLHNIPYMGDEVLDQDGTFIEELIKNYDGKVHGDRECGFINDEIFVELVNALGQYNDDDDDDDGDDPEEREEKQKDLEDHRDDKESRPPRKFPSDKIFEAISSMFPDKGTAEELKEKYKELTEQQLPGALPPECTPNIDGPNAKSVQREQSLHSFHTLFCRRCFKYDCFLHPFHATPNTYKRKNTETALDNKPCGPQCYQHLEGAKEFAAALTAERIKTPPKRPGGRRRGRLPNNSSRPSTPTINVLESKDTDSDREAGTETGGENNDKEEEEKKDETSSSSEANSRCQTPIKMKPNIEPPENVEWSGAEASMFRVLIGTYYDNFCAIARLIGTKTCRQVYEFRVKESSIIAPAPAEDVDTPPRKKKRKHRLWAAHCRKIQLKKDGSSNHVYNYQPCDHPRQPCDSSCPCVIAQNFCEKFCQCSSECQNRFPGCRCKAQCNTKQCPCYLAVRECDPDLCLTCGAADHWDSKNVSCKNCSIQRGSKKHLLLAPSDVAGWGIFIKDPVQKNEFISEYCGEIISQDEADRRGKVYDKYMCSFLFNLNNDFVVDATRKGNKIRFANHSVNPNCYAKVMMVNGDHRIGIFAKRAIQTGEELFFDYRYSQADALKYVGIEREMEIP
EZH2, sequence (O75530 whole entry partner, species assumed): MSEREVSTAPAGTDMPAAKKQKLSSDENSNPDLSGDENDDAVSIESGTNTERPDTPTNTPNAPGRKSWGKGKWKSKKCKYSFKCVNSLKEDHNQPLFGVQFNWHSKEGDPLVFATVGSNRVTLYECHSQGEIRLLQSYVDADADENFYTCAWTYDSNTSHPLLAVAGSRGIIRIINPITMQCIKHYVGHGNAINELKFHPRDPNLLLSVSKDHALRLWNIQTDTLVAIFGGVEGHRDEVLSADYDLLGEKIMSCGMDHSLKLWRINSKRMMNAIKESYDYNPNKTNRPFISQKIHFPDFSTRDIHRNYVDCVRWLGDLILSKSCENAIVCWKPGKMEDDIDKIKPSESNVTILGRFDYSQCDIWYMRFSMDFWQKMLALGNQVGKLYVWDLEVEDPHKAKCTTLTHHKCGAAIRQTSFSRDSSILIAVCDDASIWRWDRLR
EZH2, sequence (Q15022 whole entry partner, species assumed): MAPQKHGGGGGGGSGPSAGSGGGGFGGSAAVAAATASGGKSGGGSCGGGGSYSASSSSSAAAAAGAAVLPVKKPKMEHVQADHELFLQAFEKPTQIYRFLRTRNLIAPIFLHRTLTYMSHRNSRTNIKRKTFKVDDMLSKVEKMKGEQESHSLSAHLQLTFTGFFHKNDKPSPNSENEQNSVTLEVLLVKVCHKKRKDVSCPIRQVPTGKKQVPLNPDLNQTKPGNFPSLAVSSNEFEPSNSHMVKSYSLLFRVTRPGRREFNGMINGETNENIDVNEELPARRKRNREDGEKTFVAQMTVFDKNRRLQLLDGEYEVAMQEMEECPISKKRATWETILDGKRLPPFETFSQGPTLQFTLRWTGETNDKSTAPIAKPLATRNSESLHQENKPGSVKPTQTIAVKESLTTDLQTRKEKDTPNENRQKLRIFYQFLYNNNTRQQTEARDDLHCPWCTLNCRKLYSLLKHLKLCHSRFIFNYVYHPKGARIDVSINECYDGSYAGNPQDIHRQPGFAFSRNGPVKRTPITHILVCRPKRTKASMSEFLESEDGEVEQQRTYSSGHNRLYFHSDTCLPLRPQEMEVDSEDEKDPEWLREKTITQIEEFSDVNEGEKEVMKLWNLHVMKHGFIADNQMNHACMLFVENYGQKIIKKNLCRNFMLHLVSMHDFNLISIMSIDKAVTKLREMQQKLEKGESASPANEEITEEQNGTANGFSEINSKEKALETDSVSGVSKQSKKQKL
G9a, sequence (Q96KQ7 whole entry): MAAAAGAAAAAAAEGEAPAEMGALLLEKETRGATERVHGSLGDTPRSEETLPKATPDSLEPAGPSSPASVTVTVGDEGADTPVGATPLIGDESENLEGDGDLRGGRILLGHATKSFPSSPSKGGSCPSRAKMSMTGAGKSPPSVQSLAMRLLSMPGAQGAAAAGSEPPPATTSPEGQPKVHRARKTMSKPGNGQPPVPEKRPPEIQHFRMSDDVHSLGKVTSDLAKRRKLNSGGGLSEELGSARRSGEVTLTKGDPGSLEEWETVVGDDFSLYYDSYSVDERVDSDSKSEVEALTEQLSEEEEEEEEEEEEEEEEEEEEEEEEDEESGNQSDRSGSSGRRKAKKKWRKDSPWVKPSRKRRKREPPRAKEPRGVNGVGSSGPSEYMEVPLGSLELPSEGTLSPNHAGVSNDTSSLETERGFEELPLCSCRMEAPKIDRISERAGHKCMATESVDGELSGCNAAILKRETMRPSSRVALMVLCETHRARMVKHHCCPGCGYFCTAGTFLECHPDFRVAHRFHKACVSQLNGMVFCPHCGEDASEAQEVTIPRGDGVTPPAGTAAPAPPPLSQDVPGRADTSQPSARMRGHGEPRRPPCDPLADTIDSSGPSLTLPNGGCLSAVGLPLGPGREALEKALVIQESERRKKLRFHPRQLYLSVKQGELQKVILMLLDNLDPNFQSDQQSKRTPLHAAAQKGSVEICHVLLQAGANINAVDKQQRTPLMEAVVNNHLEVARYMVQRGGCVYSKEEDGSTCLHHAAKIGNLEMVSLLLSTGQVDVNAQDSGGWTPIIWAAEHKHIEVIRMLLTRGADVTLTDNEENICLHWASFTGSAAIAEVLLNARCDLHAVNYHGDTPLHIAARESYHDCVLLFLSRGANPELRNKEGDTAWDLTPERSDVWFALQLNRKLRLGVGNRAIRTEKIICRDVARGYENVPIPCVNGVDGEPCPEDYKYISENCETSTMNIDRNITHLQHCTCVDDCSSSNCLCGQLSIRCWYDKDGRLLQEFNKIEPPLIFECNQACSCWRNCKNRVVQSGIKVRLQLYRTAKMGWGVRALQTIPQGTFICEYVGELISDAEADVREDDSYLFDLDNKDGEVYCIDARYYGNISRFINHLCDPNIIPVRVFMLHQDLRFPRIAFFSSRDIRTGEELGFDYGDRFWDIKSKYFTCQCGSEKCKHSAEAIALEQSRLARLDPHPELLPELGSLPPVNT

SMILES	N-1 protonated form [1] [%]	activity against GLP (in words) [2]	G9a inhibitory activity (in words) (G9a)	activity against SETD2 (in words) (SETD2)	activity against EZH2 (in words) (EZH2)	activity against all other methyltransferases in the panel (in words) [3]
COc1cc2nc(N3CCCN(C)CC3)nc(NC3CCN(Cc4ccccc4)CC3)c2cc1OC [Compound 1, BIX-01294, reference compound]	8.0	dual G9a/GLP activity	–	–	–	–
COc1cc2nc(N3CCCN(C)CC3)cc(NC3CCN(Cc4ccccc4)CC3)c2cc1OC [Compound 41]	96.9	equipotent against G9a and GLP	significant activity	moderate inhibitory activity	moderate inhibitory activity	inactive
COc1cc2nc(N3CCN(C)CC3)cc(NC3CCN(Cc4ccccc4)CC3)c2cc1OC [Compound 42]	–	equipotent against G9a and GLP	significant activity	moderate inhibitory activity	moderate inhibitory activity	inactive
